Results taken from ChEMBL document CHEMBL2074494 (Biopharm Drug Dispos, 2004).

Molecular target: ATP-dependent translocase ABCB1 (Homo sapiens, UniProt P08183)
Experiment: TP_TRANSPORTER: transepithelial transport in Caco-2 cells
Assay type: functional, cell-based

Chain of ATP-dependent translocase ABCB1 (P08183 whole entry): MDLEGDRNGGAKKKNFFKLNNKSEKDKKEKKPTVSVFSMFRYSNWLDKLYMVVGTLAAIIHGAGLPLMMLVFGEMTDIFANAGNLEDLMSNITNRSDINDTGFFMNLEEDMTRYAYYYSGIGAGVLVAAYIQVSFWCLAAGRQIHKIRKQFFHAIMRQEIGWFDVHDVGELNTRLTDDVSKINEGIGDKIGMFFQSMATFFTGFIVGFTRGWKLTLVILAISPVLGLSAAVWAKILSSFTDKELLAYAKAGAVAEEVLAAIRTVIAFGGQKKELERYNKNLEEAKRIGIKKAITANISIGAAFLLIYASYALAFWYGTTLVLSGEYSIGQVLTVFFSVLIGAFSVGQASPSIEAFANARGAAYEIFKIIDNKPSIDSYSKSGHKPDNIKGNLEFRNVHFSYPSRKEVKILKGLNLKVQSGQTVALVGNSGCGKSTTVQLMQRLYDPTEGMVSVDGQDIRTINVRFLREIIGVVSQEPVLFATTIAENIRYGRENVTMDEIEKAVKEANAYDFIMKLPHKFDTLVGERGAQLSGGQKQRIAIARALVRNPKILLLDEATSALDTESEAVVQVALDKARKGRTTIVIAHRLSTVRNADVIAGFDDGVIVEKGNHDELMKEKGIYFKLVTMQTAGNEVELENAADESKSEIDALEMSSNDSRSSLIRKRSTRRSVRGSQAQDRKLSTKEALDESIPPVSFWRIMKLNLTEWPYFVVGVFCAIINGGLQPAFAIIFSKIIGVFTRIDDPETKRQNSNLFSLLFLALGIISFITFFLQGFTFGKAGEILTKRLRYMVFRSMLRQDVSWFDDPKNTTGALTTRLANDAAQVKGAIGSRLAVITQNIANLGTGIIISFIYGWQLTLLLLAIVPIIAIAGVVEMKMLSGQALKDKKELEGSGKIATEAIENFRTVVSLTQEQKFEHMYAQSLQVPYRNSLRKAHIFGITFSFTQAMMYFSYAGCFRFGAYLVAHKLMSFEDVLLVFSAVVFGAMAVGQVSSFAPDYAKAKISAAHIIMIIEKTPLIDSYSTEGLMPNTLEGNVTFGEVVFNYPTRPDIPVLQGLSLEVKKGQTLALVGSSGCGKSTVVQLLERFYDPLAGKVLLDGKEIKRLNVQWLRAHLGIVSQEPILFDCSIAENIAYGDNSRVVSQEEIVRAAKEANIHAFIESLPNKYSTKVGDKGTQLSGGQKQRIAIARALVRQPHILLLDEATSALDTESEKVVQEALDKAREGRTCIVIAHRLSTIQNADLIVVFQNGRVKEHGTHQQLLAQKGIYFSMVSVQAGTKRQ

Row | Compound | Activity
1 | CCC(=C(c1ccc(O)cc1)c1ccc(OCCN(C)C)cc1)c1ccccc1 | is not a substrate [-]
2 | CC/C(=C(\c1ccccc1)c1ccc(OCCN)cc1)c1ccccc1 [DESMETHYL TAMOXIFEN] | is not a substrate [-]
